Measurements from BindingDB's records for patent US9556181 (Bayer Pharma Aktiengesellschaft, 2017).

Molecular target: T1, MAP kinase-interacting serine/threonine-protein kinase 1 [T344D] (Homo sapiens, UniProt Q9BUB5, T344D)
T1 construct: gene MKNK1
Assay: MKNK1 Kinase High ATP Assay
Details: pH 7.5
Text: TBDA recombinant fusion protein of Glutathione-S-Transferase (GST, N-terminally) and human full-length MKNK1 (amino acids 1-424 and T344D of accession number BAA 19885.1), expressed in insect cells using baculovirus expression system and purified via glutathione sepharose affinity chromatography, was purchased from Carna Biosciences (product no 02-145) and used as enzyme. As substrate for the kinase reaction the biotinylated peptide biotin-Ahx-IKKRKLTRRKSLKG (C-terminus in amide form) was used, which can be purchased e.g. from the company Biosyntan (Berlin-Buch, Germany).For the assay 50 nL of a 100 fold concentrated solution of the test compound in DMSO was pipetted into a black low volume 384 well microtiter plate (Greiner Bio-One, Frickenhausen, Germany), 2 μL of a solution of MKNK1 in aqueous assay buffer [50 mM HEPES pH 7.5, 5 mM MgCl2, 1.0 mM dithiothreitol, 0.005% (v/v) Nonidet-P40 (Sigma)] was added and the mixture was incubated for 15 min at 22° C. to allow pre-binding of the test compounds to the enzyme before the start of the kinase reaction. Then the kinase reaction was started by the addition of 3 μL of a solution of adenosine-tri-phosphate (ATP, 3.3 mM=>final conc. in the 5 μL assay volume is 2 mM) and substrate (0.1 μM=>final conc. in the 5 μL assay volume is 0.06 μM) in assay buffer and the resulting mixture was incubated for a reaction time of 30 min at 22° C. […]

T1 sequence (Q9BUB5 whole entry, looked up, stated change not applied): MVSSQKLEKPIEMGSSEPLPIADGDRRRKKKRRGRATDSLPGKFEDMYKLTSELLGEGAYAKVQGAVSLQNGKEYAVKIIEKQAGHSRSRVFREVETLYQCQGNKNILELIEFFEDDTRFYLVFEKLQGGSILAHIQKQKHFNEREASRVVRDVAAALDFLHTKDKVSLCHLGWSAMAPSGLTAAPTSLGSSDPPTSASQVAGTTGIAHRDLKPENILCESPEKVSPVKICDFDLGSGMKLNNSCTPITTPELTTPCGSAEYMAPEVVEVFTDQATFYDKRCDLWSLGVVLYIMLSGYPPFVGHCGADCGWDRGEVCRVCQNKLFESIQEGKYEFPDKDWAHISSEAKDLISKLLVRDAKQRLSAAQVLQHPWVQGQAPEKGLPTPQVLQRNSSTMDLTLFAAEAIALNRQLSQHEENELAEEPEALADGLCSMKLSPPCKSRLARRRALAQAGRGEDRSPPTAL

Q: COc1cc2[nH]ncc2cc1Nc1ncnc2[nH]ncc12 [US9556181, 2] was tested. Which IC50 did it give?
A: Its IC50 is 49 nM.
